From the supplement of paper PMC11061612 come the findings set out here.

Holding throughout (assay): Bliss excess, mean over the matrix (fraction); higher = more synergy
For test [1], the system named is NMC-G1 (Low Grade Glioma). A digest of the protocol:
(§1)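 After 24 hours at 37°C and 5% CO2 in 1536-well plates, cells in DMEM/F12 or RPMI plus 10% FBS received two-drug dose matrices for 72 hours. Viability came from CellTiter-Glo 2.0 luminescence and was scaled as inhibition, anchored at 0 by vehicle wells and at 1 by blank wells. Combination Emax is taken as the second-highest inhibition in the matrix, and Bliss excess as the observed combination effect less EA + EB − EA·EB, with EA and EB the single-agent effects.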

Test [2] deals with TUR (Acute Myeloid Leukemia). A digest of the protocol:
as §1

In test [3] the test system is MONO-MAC-6 (Acute Myeloid Leukemia). A digest of the protocol: as §1
Test [4] relates to NCI-H1341 (Small Cell Lung Carcinoma). A digest of the protocol: as §1
The next test has as its system AM-38 (Glioblastoma). Summed up: as §1
Test [5] has as its system IA-LM (Non-Small Cell Lung Carcinoma). Summed up:
as §1

Another test deals with SK-N-SH (Neuroblastoma). Summed up: as §1
Test [6] concerns Raji (Burkitt's Lymphoma). Summed up:
as §1

The test system of test [7] is MOLT-13 (T-Lymphoblastic Leukemia). Summed up: as §1
In test [8] the test system is COR-L88 (Small Cell Lung Carcinoma). A digest of the protocol: as §1
The subject of test [9] is DBTRG-05MG (Glioblastoma). A digest of the protocol: as §1
Test [10] concerns T84 (Colorectal Carcinoma). Summed up: as §1
The subject of test [11] is HT-1080 (Other Solid Carcinomas). Summed up:
as §1

Test [12] relates to SAT (Head and Neck Carcinoma). A digest of the protocol:
as §1

The test system of test [13] is BHT-101 (Thyroid Gland Carcinoma). Summed up: as §1
Test [14] has as its system MS-1 (Small Cell Lung Carcinoma). Summed up:
as §1

Another test relates to IST-MEL1 (Melanoma). Summed up:
as §1

The test system of a further test is NCI-H226 (Mesothelioma). Summed up:
as §1

The subject of test [15] is SiHa (Cervical Carcinoma). A digest of the protocol:
as §1

The test system of test [16] is SNU-C2B (Colorectal Carcinoma). Summed up:
as §1

The structures appear in SMILES notation.

For the compound `CN(C)CCCOc1ccc(-c2ccc3ncc4c(c3c2)n(C2CCOCC2)c(=O)n4C)cn1` [AZD0156] + C=CCn1c(=O)c2cnc(Nc3ccc(N4CCN(C)CC4)cc3)nc2n1-c1cccc(C(C)(C)O)n1 [AZD1775] (first compound max 1 µM, partner max 1 µM), the Bliss excess in [1] is -0.0467; in test [2], 0.0088; in [3], 0.0017; in test [4], -0.0201; in the test on AM-38 (Glioblastoma), 0.0248; in test [5], -0.0068. The Bliss excess in the test on SK-N-SH (Neuroblastoma) was -0.0533; in [6], -0.0278; in [7], 0.0227; in [8], -0.0013; in test [9], -0.0489; in test [10] it was -0.0631. Also, the Bliss excess in [11] is -0.0316; in test [12] it was -0.0388; in test [13], -0.0209; in [14], -0.0301; in the test with IST-MEL1 (Melanoma), -0.0225; with NCI-H226 (Mesothelioma), -0.0862. In addition, the values for the Bliss excess in test [15] and in test [16] were -0.0334 and -0.0328, respectively.

Take `CN(C)CCCOc1ccc(-c2ccc3ncc4c(c3c2)n(C2CCOCC2)c(=O)n4C)cn1` [AZD0156] + CCN(CCO)CCCOc1ccc2c(Nc3cc(CC(=O)Nc4cccc(F)c4)[nH]n3)ncnc2c1 [AZD2811] (first compound max 1 µM, 7x7, partner max 1 µM): the Bliss excess in [1] is -0.0855; in test [2] it was 0.0563; in test [3], 0.053; in [4], 0.005; in the test with AM-38 (Glioblastoma) it was 0.0165; in test [5], -0.0326. Also, the Bliss excess in the test on SK-N-SH (Neuroblastoma) was -0.0133; in test [6], 0.0082; in [7], 0.0392; in test [8], -0.0279; in test [9], -0.0453; in [10], -0.0248. The Bliss excess is -0.0159 in [11]; -0.0362 in test [12]; -0.0273 in test [13]; 0.0331 in test [14]; -0.0131 with IST-MEL1 (Melanoma); -0.0676 in the test with NCI-H226 (Mesothelioma). Moreover, the Bliss excess is -0.0083 in test [15] and -0.0227 in test [16].

Turning to `CN(C)CCCOc1ccc(-c2ccc3ncc4c(c3c2)n(C2CCOCC2)c(=O)n4C)cn1` [AZD0156] + C[C@@H]1COCCN1C2=NC(=NC(=C2)C3(CC3)[S@](=N)(=O)C)C4=C5C=CNC5=NC=C4 [AZD6738] (first compound max 1 µM, 7x7, partner max 10 µM), the Bliss excess in test [1] is -0.0603; in [2], 0.0261; in [3] it was -0.0253; in test [4], 0.0309; in the test on AM-38 (Glioblastoma) it was 0.0677; in [5] it was -0.0241. The Bliss excess in the test with SK-N-SH (Neuroblastoma) is -0.115; in [6] it was 0.0164; in [7], 0.0472; in [8], 0.0772; in test [9], -0.022; in test [10], 0.0182. Besides, the Bliss excess in test [11] is 0.02; in [12] it was -0.0116; in test [13], 0.0222; in test [14] it was 0.0279; in the test with IST-MEL1 (Melanoma), -0.0196; in the test with NCI-H226 (Mesothelioma), -0.0581. In addition, the Bliss excess is -0.0456 in test [15] and 0.0183 in test [16].

For `C=CCn1c(=O)c2cnc(Nc3ccc(N4CCN(C)CC4)cc3)nc2n1-c1cccc(C(C)(C)O)n1` [AZD1775] + C[C@@H]1COCCN1C2=NC(=NC(=C2)C3(CC3)[S@](=N)(=O)C)C4=C5C=CNC5=NC=C4 [AZD6738] (first compound max 1 µM, partner max 10 µM), the Bliss excess in [1] is -0.0028; in [2] it was 0.0657; in test [3], 0.0178; in [4] it was 0.0723; with AM-38 (Glioblastoma), 0.0618; in test [5], 0.0477. The Bliss excess with SK-N-SH (Neuroblastoma) is -0.0285; in [6], 0.109; in test [7], 0.0735; in [8], 0.04; in [9], -0.0076; in test [10] it was 0.0084. Further, the Bliss excess is 0.0145 in test [11]; -0.0229 in test [12]; 0.0094 in test [13]; 0.0322 in test [14]; 0.021 in the test with IST-MEL1 (Melanoma); -0.0327 with NCI-H226 (Mesothelioma). Moreover, the Bliss excess is 0.0019 in test [15] and -0.0212 in [16].

For `C=CCn1c(=O)c2cnc(Nc3ccc(N4CCN(C)CC4)cc3)nc2n1-c1cccc(C(C)(C)O)n1` [AZD1775] + O=C(c1cc(Cc2n[nH]c(=O)c3ccccc23)ccc1F)N1CCN(C(=O)C2CC2)CC1 [Olaparib] (first compound max 1 µM, partner max 10 µM), the Bliss excess in test [1] was -0.0352; in test [2], 0.0029; in test [3], 0.0004; in test [4], -0.0236; in the test with AM-38 (Glioblastoma) it was -0.0018; in [5], -0.0513. For the same compound, the Bliss excess in the test with SK-N-SH (Neuroblastoma) is -0.0947; in test [6], -0.016; in test [7], 0.021; in test [8], -0.0925; in test [9], -0.0747; in test [10], -0.0136. The Bliss excess is -0.0327 in [11]; -0.0474 in [12]; -0.0568 in test [13]; -0.0094 in test [14]; -0.0596 in the test with IST-MEL1 (Melanoma); -0.035 in the test with NCI-H226 (Mesothelioma). Besides, the figures for the Bliss excess in test [15] and in test [16] were -0.0444 and 0.0056, respectively.

With `CCN(CCO)CCCOc1ccc2c(Nc3cc(CC(=O)Nc4cccc(F)c4)[nH]n3)ncnc2c1` [AZD2811] + C=CCn1c(=O)c2cnc(Nc3ccc(N4CCN(C)CC4)cc3)nc2n1-c1cccc(C(C)(C)O)n1 [AZD1775] (first compound max 1 µM, partner max 1 µM), the Bliss excess in [1] is -0.0847; in test [2] it was 0.117; in test [3] it was 0.0263; in [4], 0.0747; in the test with AM-38 (Glioblastoma), 0.0107; in test [5] it was 0.0064. The Bliss excess was -0.0544 in the test on SK-N-SH (Neuroblastoma); 0.0278 in test [6]; 0.0166 in [7]; -0.0099 in test [8]; -0.0402 in [9]; -0.0627 in test [10]. Moreover, the Bliss excess in test [11] is 0.025; in test [12], 0.033; in test [13] it was 0.0043; in [14], -0.0205; in the test on IST-MEL1 (Melanoma), 0.0196; with NCI-H226 (Mesothelioma), -0.0708. The Bliss excess is 0.0089 in [15] and -0.0602 in test [16].

On to `CCN(CCO)CCCOc1ccc2c(Nc3cc(CC(=O)Nc4cccc(F)c4)[nH]n3)ncnc2c1` [AZD2811] + C[C@@H]1COCCN1C2=NC(=NC(=C2)C3(CC3)[S@](=N)(=O)C)C4=C5C=CNC5=NC=C4 [AZD6738] (first compound max 1 µM, 7x7, partner max 10 µM), for which the Bliss excess in test [1] was -0.117; in test [2] it was 0.019; in test [3], -0.0262; in [4] it was 0.0028; in the test on AM-38 (Glioblastoma) it was -0.0202; in test [5], -0.0264. Further, the Bliss excess with SK-N-SH (Neuroblastoma) is -0.0358; in test [6], -0.0562; in test [7] it was -0.0075; in test [8], -0.0598; in test [9], -0.0657; in test [10] it was -0.0103. Besides, the Bliss excess in test [11] is -0.0375; in test [12], -0.0581; in test [13], -0.0298; in [14] it was -0.0585; in the test with IST-MEL1 (Melanoma), -0.0456; in the test on NCI-H226 (Mesothelioma), -0.069. In addition, the Bliss excess in [15] is -0.0137; in test [16], -0.0581.
